In patent publication US12448377B2, “Heterocyclic compound” (Takeda Pharmaceutical Company Limited, priority 2019, dated 2025):

How the values were obtained:
[1] = target: T1, human orexin type 2 receptor (Homo sapiens, UniProt O43614); experiment: Measurement of orexin type 2 receptor agonist activity (calcium fluorescence, CHO cells forcibly expressing human OX2 receptor); type: cell-based; details: compound at 3 μM, DMSO = 0%, orexin A (human) 10 nM = 100%
T1 construct: expressed in transfected cells
T1 sequence (O43614 1-444): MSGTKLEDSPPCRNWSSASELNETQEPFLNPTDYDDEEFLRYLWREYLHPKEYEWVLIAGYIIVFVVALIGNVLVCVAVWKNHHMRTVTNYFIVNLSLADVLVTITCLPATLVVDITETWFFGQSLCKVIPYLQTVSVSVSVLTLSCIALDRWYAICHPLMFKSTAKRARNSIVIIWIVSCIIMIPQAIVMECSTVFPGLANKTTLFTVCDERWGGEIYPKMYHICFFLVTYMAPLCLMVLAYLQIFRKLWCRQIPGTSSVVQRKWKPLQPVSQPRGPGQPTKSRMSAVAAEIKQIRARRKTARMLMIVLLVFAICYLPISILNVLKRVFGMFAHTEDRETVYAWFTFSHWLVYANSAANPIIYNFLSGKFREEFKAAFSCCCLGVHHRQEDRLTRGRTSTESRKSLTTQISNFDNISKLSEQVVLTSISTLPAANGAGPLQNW
Procedure, shortened: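 Agonism measured as Fluo-4 calcium fluorescence in CHO-K1 cells stably expressing human OX2 receptor, loaded 30 min at 37° C then 30 min at room temperature with probenecid. Signal recorded about 2 min 40 sec after compound; activity (%) normalised to DMSO (0%) and 10 nM human orexin A (100%).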

[2] = system: cynomolgus monkeys; experiment: Evaluation of wake-promoting effects in cynomolgus monkeys (EEG/EMG/EOG); type: in vivo, cynomolgus monkey; details: s.c., at ZT12, 4 h after administration
Procedure: The wake-promoting effects were evaluated by measuring the electroencephalogram (EEG), electromyogram (EMG) and electrooculogram (EOG) in cynomolgus monkeys. Under isoflurane anesthesia (1-5%, Pfizer Japan Inc., Tokyo, Japan), male cynomolgus monkeys (2-3 years old, Hamri Co., Ltd., Ibaraki, Japan) were surgically implanted with radio-telemetry transmitters (TL10M3-D70-EEE, Data Sciences International Inc., MN, USA). EEG leads were stereotaxically positioned at the parietal area and secured to the cranium with stainless-steel screws in contact with the dura. […] Bilateral EMG leads were implanted into the back cervical muscles. After the surgery, each monkey was given penicillin (100,000 units/head, i.m., Meiji Seika Pharma Co., Ltd., Tokyo, Japan), buprenorphine (0.02 mg/kg, i.m., Otsuka Pharmaceutical Co., Ltd., Tokyo, Japan) and prednisolone (1 mg/kg, s.c., Kyoritsu Seiyaku Co., Ltd., Tokyo, Japan) daily for one week. After at least a 1-month recovery period in home cages, the monkeys were habituated to the recording chamber (an acrylic cage 60W×55D×75H (cm)) located in a soundproof, electrically shielded room. After confirming that the monkeys slept sufficiently in the experimental room, the cortical EEG, EMG and EOG signals were recorded using Dataquest ART software (Data Sciences International Inc., MN, USA). The signals were semi automatically scored in 20 sec epochs by a sleep scoring system (SleepSign, Kissei Comtec Co., Ltd., Nagano, Japan). This preliminary scoring was visually inspected and corrected if necessary. Test compound (0.1, 0.3, 1 or 10 mg/kg, Table 4) dissolved in a mixed solution containing 5% DMSO, 5% Cremophor EL, 20% PEG400 and 70% soluplus (1% (w/v)), or vehicle (i.e., a mixed solution containing 5% DMSO, 5% Cremophor EL, 20% PEG400 and 70% soluplus (1% (w/v))) was administered subcutaneously (s.c.) to the cynomolgus monkeys at ZT12 in a volume of 0.5 mL/kg in a pre-post design. The EEG, EMG and EOG recordings were performed for 4 h after the compound administration. The time spent in wakefulness for 4 h after administration (% of vehicle treatment) was calculated by using SleepSign.

[3] = system: SD rats; experiment: Evaluation of wake-promoting effects in SD rats (EEG/EMG); type: in vivo, rat; details: s.c., at ZT5, 3 hr after administration
Procedure: The wake-promoting effects were evaluated by measuring the electroencephalogram (EEG) and electromyogram (EMG) in SD rats (Crl:CD(SD), CHARLES RIVER LABORATORIES JAPAN, Kanagawa, Japan.) using chronic experiment telemetry automatic measurement system (PhysioTel® and PONEMAH™, Data Sciences International Inc., Minnesota, U.S.A.). Under pentobarbital sodium anesthesia (50 mg/kg, intraperitoneal, Somnopentyl®, Kyoritsu Seiyaku, Tokyo, Japan), […] male SD rats were surgically implanted with a transmitter. Bilateral EEG leads were positioned at the parietal area in contact with the dura and fixed to the cranium with dental cement. Bilateral EMG leads were fixed to the back cervical muscles. The transmitter was implanted under the skin of the back, and the head skin was sutured. After recovery for at least 1 week, the cortical EEG and EMG signals in SD rats were recorded using a high-end data acquisition and real-time analysis system (PONEMAH™). The signals were automatically scored in 4 sec epochs by a sleep scoring system (SleepSign®, Kissei Comtec Co., Ltd.). Test compound (1 or 10 mg/kg, Table 3) dissolved in a mixed solution containing 10% DMSO, 10% Cremophor EL, 20% PEG400 and 60% H2O, or vehicle (i.e., a mixed solution containing 10% DMSO, 10% Cremophor EL, 20% PEG400 and 60% H2O) was administered subcutaneously (s.c.) to the SD rats at zeitgeber time (ZT) 5 (when the start time of the light cycle was ZT0) in a volume of 5 mL/kg. The EEG and EMG recordings were performed for 3 hr after the compound administration. The time spent in wakefulness for 3 hr after administration (% of vehicle treatment) was calculated by using SleepSign.

## Cc1ccc2n(c1=O)C(COC1CCC(c3ccccc3)CC1)C(NS(C)(=O)=O)CC2 [Example 6, rel-N-[(3S,4R)-7-methyl-6-oxo-4-({[(1s,4S)-4-phenylcyclohexyl]oxy}methyl)-1,3,4,6-tetrahydro-2H-quinolizin-3-yl]methanesulfonamide]
[1]
  OX2R agonist activity (3 μM, %): 92%
[2]; 0.3 mg/kg
  Wakefulness time (% of vehicle treatment) (Mean, n = 2): 352.87 % of vehicle treatment

## CCC1CCC(OCC2C(NS(C)(=O)=O)CCc3ccc(C)c(=O)n32)CC1 [Example 9, rel-N-[(3S,4R)-4-({[(1s,4S)-4-ethylcyclohexyl]oxy}methyl)-7-methyl-6-oxo-1,3,4,6-tetrahydro-2H-quinolizin-3-yl]methanesulfonamide]
[1]
  OX2R agonist activity (3 μM, %): 68%
[2]; 0.3 mg/kg
  Wakefulness time (% of vehicle treatment) (Mean, n = 2): 521.43 % of vehicle treatment

## CCCC1CCC(OCC2C(NS(=O)(=O)C3CC3)CCc3ccc(C)c(=O)n32)CC1 [Example 78, rel-N-[(3S,4R)-7-methyl-6-oxo-4-({[(1r,4S)-4-propylcyclohexyl]oxy}methyl)-1,3,4,6-tetrahydro-2H-quinolizin-3-yl]cyclopropanesulfonamide]
[1]
  OX2R agonist activity (3 μM, %): 88%
[3]; 1 mg/kg
  Wakefulness time (% of vehicle treatment) (Mean, n = 2): 130.53 % of vehicle treatment

## Cc1ccc2n(c1=O)C(COC1CCC(C3CC3)CC1)C(NS(C)(=O)=O)CC2 [Example 111, rel-N-[(3S,4R)-4-({[(1s,4S)-4-cyclopropylcyclohexyl]oxy}methyl)-7-methyl-6-oxo-1,3,4,6-tetrahydro-2H-quinolizin-3-yl]methanesulfonamide]
[1]
  OX2R agonist activity (3 μM, %): 98%
[3]; 1 mg/kg
  Wakefulness time (% of vehicle treatment) (Mean, n = 2): 126.37 % of vehicle treatment

## CCS(=O)(=O)NC1CCc2ccc(C)c(=O)n2C1COC1CCC(C2CC2)CC1 [Example 112, rel-N-[(3S,4R)-4-({[(1s,4S)-4-cyclopropylcyclohexyl]oxy}methyl)-7-methyl-6-oxo-1,3,4,6-tetrahydro-2H-quinolizin-3-yl]ethanesulfonamide]
[1]
  OX2R agonist activity (3 μM, %): 94%
[2]; 0.1 mg/kg
  Wakefulness time (% of vehicle treatment) (Mean, n = 2): 671.65 % of vehicle treatment

## Cc1ccc2n(c1=O)C(COC1CCC(C3CC3)CC1)C(NS(=O)(=O)C1CC1)CC2 [Example 113, rel-N-[(3S,4R)-4-({[(1s,4S)-4-cyclopropylcyclohexyl]oxy}methyl)-7-methyl-6-oxo-1,3,4,6-tetrahydro-2H-quinolizin-3-yl]cyclopropanesulfonamide]
[1]
  OX2R agonist activity (3 μM, %): 87%
[2]; 0.1 mg/kg
  Wakefulness time (% of vehicle treatment) (Mean, n = 2): 380.66 % of vehicle treatment

## CCOC1CCC(OCC2C(NS(C)(=O)=O)CCc3ccc(C)c(=O)n32)CC1 [Example 145, rel-N-[(3S,4R)-4-({[(1s,4S)-4-ethoxycyclohexyl]oxy}methyl)-7-methyl-6-oxo-1,3,4,6-tetrahydro-2H-quinolizin-3-yl]methanesulfonamide]
[1]
  OX2R agonist activity (3 μM, %): 96%
[2]; 10 mg/kg
  Wakefulness time (% of vehicle treatment) (Mean, n = 2): 277.67 % of vehicle treatment

## CC#CC1CCC(OCC2C(NS(C)(=O)=O)CCc3ccc(C)c(=O)n32)CC1 [Example 146, rel-N-[(3S,4R)-7-methyl-6-oxo-4-({[(1s,4S)-4-(prop-1-yn-1-yl)cyclohexyl]oxy}methyl)-1,3,4,6-tetrahydro-2H-quinolizin-3-yl]methanesulfonamide]
[1]
  OX2R agonist activity (3 μM, %): 104%
[3]; 10 mg/kg
  Wakefulness time (% of vehicle treatment) (Mean, n = 2): 166.75 % of vehicle treatment

## CC#CC1CCC(OCC2C(NS(=O)(=O)CC)CCc3ccc(C)c(=O)n32)CC1 [Example 147, rel-N-[(3S,4R)-7-methyl-6-oxo-4-({[(1s,4S)-4-(prop-1-yn-1-yl)cyclohexyl]oxy}methyl)-1,3,4,6-tetrahydro-2H-quinolizin-3-yl]ethanesulfonamide]
[1]
  OX2R agonist activity (3 μM, %): 99%
[2]; 1 mg/kg
  Wakefulness time (% of vehicle treatment) (Mean, n = 2): 389.64 % of vehicle treatment

## CC#CC1CCC(OCC2C(NS(=O)(=O)C3CC3)CCc3ccc(C)c(=O)n32)CC1 [Example 148, rel-N-[(3S,4R)-7-methyl-6-oxo-4-({[(1s,4S)-4-(prop-1-yn-1-yl)cyclohexyl]oxy}methyl)-1,3,4,6-tetrahydro-2H-quinolizin-3-yl]cyclopropanesulfonamide]
[1]
  OX2R agonist activity (3 μM, %): 97%
[2]; 1 mg/kg
  Wakefulness time (% of vehicle treatment) (Mean, n = 2): 324.87 % of vehicle treatment

## CC#CC1CCC(OCC2C(NS(=O)(=O)NC)CCc3ccc(C)c(=O)n32)CC1 [Example 149, rel-N-methyl-N′-[(3S,4R)-7-methyl-6-oxo-4-({[(1s,4S)-4-(prop-1-yn-1-yl)cyclohexyl]oxy}methyl)-1,3,4,6-tetrahydro-2H-quinolizin-3-yl]sulfuric diamide]
[1]
  OX2R agonist activity (3 μM, %): 95%
